The target of the assay is E3 ubiquitin-protein ligase Mdm2 (Homo sapiens, UniProt Q00987). Put plainly: Displacement of Ac-Phe-Arg-Dpr(fluorophore)-Ac6c-(6-Br)Trp-Glu-Glu-Leu-NH2 from human N-terminal His6-tagged MDM2 (17 to 125 residues) expressed in Escherichia coli by fluorescence polarization assay.

This passage reports IC50 results from BindingDB's records for doi:10.1016/j.bmcl.2016.03.078 (Merck Research Laboratories, 2016).

The structures appear in SMILES notation.

Sequence of E3 ubiquitin-protein ligase Mdm2 (Q00987 whole entry, the tested form may be a part): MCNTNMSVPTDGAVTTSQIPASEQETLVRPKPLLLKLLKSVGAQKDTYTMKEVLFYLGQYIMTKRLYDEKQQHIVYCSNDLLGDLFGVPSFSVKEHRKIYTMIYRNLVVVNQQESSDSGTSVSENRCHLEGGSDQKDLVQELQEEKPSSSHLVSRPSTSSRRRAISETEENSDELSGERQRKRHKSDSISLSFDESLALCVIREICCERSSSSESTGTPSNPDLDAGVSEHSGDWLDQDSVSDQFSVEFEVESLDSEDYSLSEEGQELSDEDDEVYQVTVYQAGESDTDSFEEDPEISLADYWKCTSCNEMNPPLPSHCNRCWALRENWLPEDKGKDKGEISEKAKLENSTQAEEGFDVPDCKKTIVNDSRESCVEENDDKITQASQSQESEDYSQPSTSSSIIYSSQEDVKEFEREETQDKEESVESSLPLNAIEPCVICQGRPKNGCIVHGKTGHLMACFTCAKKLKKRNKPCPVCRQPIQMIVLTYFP

In turn, `O=C(c1cnccc1C(F)(F)F)N1CCCC(Oc2ccc(C(F)(F)F)cc2)(C(=O)N2CCN(c3ccccn3)CC2)C1` (stereo unspecified) came in with an IC50 of 2.3 µM.
